Data taken from patent EP2607478A1, “Phenanthroline treated MSC” (Universiteit Twente, priority 2011, dated 2013).
“Also recorded” adds a separate entry of the source.

System: MSCs
Test: Whole genome expression analysis (Illumina microarray) of treated MSCs
Format: cell-based, Human
Description: MSCs were seeded in T25 flasks at 5000 cells/cm^2 and allowed to attach overnight in proliferation medium. […] After 48 hours, RNA was isolated as described above. From 500 ng of RNA, cRNA was synthesized using the Illumina TotalPrep RNA amplification Kit (Ambion), according to the manufacturer's protocol and the quality of RNA and cRNA was verified on a Bioanalyzer 2100 (Agilent). Microarrays were performed using Illumina HT-12 v4 expression Beadchips, according to the manufacturer's protocol. Briefly, 750 ng of cRNA was hybridized on the array overnight after which the array was washed and blocked. Then, by addition of streptavidin Cy-3 a fluorescent signal was developed. Arrays were scanned on an Illumina iScan reader and raw intensity values were background corrected in GenomeStudio (Illumina). Further data processing and statistical testing were performed with R and Bioconductor statistical software (www.bioconductor.org), using package lumi. Raw intensity values were transformed using variance stabilization and a quantile normalization was performed. A linear modelling approach with empirical Bayesian methods, as implemented in Limma package (54), was applied for differential expression analysis of the resulting probe-level expression values. A gene list, containing only those genes with an absolute 1.5-fold change between different treatments, was uploaded to Ingenuity Pathway Analysis (IPA) software and used for core analysis. Pathways or networks with a p-value of 0.05 were considered statistically significant.

c1cnc2c(c1)ccc1cccnc12 [PHE, 1, 10-phenanthroline]
interleukin-8 (Il-8) gene expression (MSCs treated for two days, 150 µM DFO or 200 µM PHE): highly induced
expression of HRE-containing genes (metabolism, cell growth and survival, endothelial genes) (MSCs treated for two days, 150 µM DFO or 200 µM PHE, relative to basic medium): most genes were strongest induced; also recorded: markedly induced higher expression
expression of RelA (PHE compared to hypoxia or DFO-treated cells): higher
expression of P300 (PHE-treated cells): higher expression
logFC(D142_PHE - D142_BAS) BNIP3L (ProbeID ILMN 2045419): 2,33
logFC(D142_PHE - D142_BAS) CYTH2 (ProbeID ILMN 3188106): 2,19
logFC(D142_PHE - D142_BAS) HIST1H2BD (ProbeID ILMN_1651496): 3,85
logFC(D142_PHE - D142_BAS) MGP (ProbeID ILMN_1651958): -2,09
logFC(D142_PHE - D142_BAS) PFKFB4 (ProbeID ILMN_1653292): 4,21
logFC(D142_PHE - D142_BAS) HES4 (ProbeID ILMN_1653466): 2,11
logFC(D142_PHE - D142_BAS) (ProbeID ILMN_1655796): 2,37
logFC(D142_PHE - D142_BAS) ELL2 (ProbeID ILMN_1655930): 2,00
logFC(D142_PHE - D142_BAS) PLAU (ProbeID ILMN_1656057, PHE vs BAS): -3,95
logFC(D142_PHE - D142_BAS) DUSP5 (ProbeID ILMN_1656501): 3,07
logFC(D142_PHE - D142_BAS) C1orf198 (ProbeID ILMN_1657683, PHE vs BAS): -2,35
logFC(D142_PHE - D142_BAS) STMN1 (ProbeID ILMN_1657796): -2,32
logFC(D142_PHE - D142_BAS) LOC728946 (ProbeID ILMN_1657962): -2,02
logFC(D142_PHE - D142_BAS) SLC2A1 (ProbeID ILMN_1659027): 4,08
logFC(D142_PHE - D142_BAS) HIST2H2AA3 (ProbeID ILMN_1659047): 3,78
logFC(D142_PHE - D142_BAS) PPP1R15A (ProbeID ILMN_1659936): 2,65
logFC(D142_PHE - D142_BAS) C7orf68 (ProbeID ILMN_1659990): 3,65
logFC(D142_PHE - D142_BAS) CDCA2 (ProbeID ILMN_1660654): 2,66
logFC(D142_PHE - D142_BAS) PFKFB3 (ProbeID ILMN_1660847): 3,69
logFC(D142_PHE - D142_BAS) LOC648210 (ProbeID ILMN_1661346): -2,02
logFC(D142_PHE - D142_BAS) DDIT4 (ProbeID ILMN_1661599): 4,48
logFC(D142_PHE - D142_BAS) TFPI (ProbeID ILMN_1662619): 2,06
logFC(D142_PHE - D142_BAS) CDC20 (ProbeID ILMN_1663390, PHE vs BAS): -2,55
logFC(D142_PHE - D142_BAS) MGC87042 (ProbeID ILMN_1663575, PHE vs BAS): -2,77
logFC(D142_PHE - D142_BAS) PPP1R14C (ProbeID ILMN_1664855): 2,96
logFC(D142_PHE - D142_BAS) ERRFI1 (ProbeID ILMN_1665510): 3,36
logFC(D142_PHE - D142_BAS) TNFRSF10D (ProbeID ILMN_1666022): 3,48
logFC(D142_PHE - D142_BAS) CDKN3 (ProbeID ILMN_1666305, PHE vs BAS): -2,37
logFC(D142_PHE - D142_BAS) GCNT1 (ProbeID ILMN_1666545): -2,01
logFC(D142_PHE - D142_BAS) IL8 (ProbeID ILMN_1666733): 5,35
logFC(D142_PHE - D142_BAS) PTGIS (ProbeID ILMN_1667692): -2,11
logFC(D142_PHE - D142_BAS) PPFIA4 (ProbeID ILMN_1667791): 2,71
logFC(D142_PHE - D142_BAS) TNS3 (ProbeID ILMN_1667893, PHE vs BAS): -2,61
logFC(D142_PHE - D142_BAS) OAF (ProbeID ILMN_1668345): -2,06
logFC(D142_PHE - D142_BAS) LOC732165 (ProbeID ILMN_1668861): 2,33
logFC(D142_PHE - D142_BAS) LOC728946 (ProbeID ILMN_1669119, PHE vs BAS): -2,56
logFC(D142_PHE - D142_BAS) ILF3 (ProbeID ILMN_1669584): -2,03
logFC(D142_PHE - D142_BAS) CKB (ProbeID ILMN_1671478): 2,73
logFC(D142_PHE - D142_BAS) ACTA2 (ProbeID ILMN_1671703, PHE vs BAS): -3,04
logFC(D142_PHE - D142_BAS) AVPI1 (ProbeID ILMN_1671731): 2,16
logFC(D142_PHE - D142_BAS) JAM2 (ProbeID ILMN_1672350): 2,37
logFC(D142_PHE - D142_BAS) KISS1R (ProbeID ILMN_1673521): 3,05
logFC(D142_PHE - D142_BAS) TFRC (ProbeID ILMN_1674243): 2,40
logFC(D142_PHE - D142_BAS) ANGPTL4 (ProbeID ILMN_1674376): 2,49
logFC(D142_PHE - D142_BAS) MYL9 (ProbeID ILMN_1675062): -2,11
logFC(D142_PHE - D142_BAS) MT3 (ProbeID ILMN_1675947): 4,91
logFC(D142_PHE - D142_BAS) MSRB3 (ProbeID ILMN_1676088, PHE vs BAS): -2,43
logFC(D142_PHE - D142_BAS) INSIG2 (ProbeID ILMN_1676629): 2,16
logFC(D142_PHE - D142_BAS) TNFRSF11B (ProbeID ILMN_1676663, PHE vs BAS): -3,04
logFC(D142_PHE - D142_BAS) YEATS2 (ProbeID ILMN_1676899): 2,21
logFC(D142_PHE - D142_BAS) PTGS2 (ProbeID ILMN_1677511): 2,13
logFC(D142_PHE - D142_BAS) CHN1 (ProbeID ILMN_1678493, PHE vs BAS): -2,73
logFC(D142_PHE - D142_BAS) THBS2 (ProbeID ILMN_1678842): -2,24
logFC(D142_PHE - D142_BAS) SLC3A2 (ProbeID ILMN_1679041): 2,15
logFC(D142_PHE - D142_BAS) CLK1 (ProbeID ILMN_1679727): 2,72
logFC(D142_PHE - D142_BAS) MAFF (ProbeID ILMN_1680139): 3,87
logFC(D142_PHE - D142_BAS) C5orf13 (ProbeID ILMN_1680738, PHE vs BAS): -2,41
logFC(D142_PHE - D142_BAS) GPRC5A (ProbeID ILMN_1682599): 4,51
logFC(D142_PHE - D142_BAS) IER3 (ProbeID ILMN_1682717): 2,62
logFC(D142_PHE - D142_BAS) RRAD (ProbeID ILMN_1683179): 2,75
logFC(D142_PHE - D142_BAS) LOC286016 (ProbeID ILMN_1684114): 2,09
logFC(D142_PHE - D142_BAS) GPT2 (ProbeID ILMN_1684158): 2,19
logFC(D142_PHE - D142_BAS) COL16A1 (ProbeID ILMN_1684554): -2,06
logFC(D142_PHE - D142_BAS) ASAP3 (ProbeID ILMN_1685441, PHE vs BAS): -2,35
logFC(D142_PHE - D142_BAS) INHBB (ProbeID ILMN_1685714): 3,60
logFC(D142_PHE - D142_BAS) TOP2A (ProbeID ILMN_1686097, PHE vs BAS): -3,07
logFC(D142_PHE - D142_BAS) THBS1 (ProbeID ILMN_1686116, PHE vs BAS): -3,00
logFC(D142_PHE - D142_BAS) VCAN (ProbeID ILMN_1687301, PHE vs BAS): -2,38
logFC(D142_PHE - D142_BAS) BAALC (ProbeID ILMN_1687751): -2,07
logFC(D142_PHE - D142_BAS) COLEC12 (ProbeID ILMN_1689088, PHE vs BAS): -3,75
logFC(D142_PHE - D142_BAS) CXCL12 (ProbeID ILMN_1689111, PHE vs BAS): -3,44
logFC(D142_PHE - D142_BAS) NIPA1 (ProbeID ILMN_1689274): 2,08
logFC(D142_PHE - D142_BAS) STAT1 (ProbeID ILMN_1690105): -2,04
logFC(D142_PHE - D142_BAS) PDLIM7 (ProbeID ILMN_1690125, PHE vs BAS): -2,57
logFC(D142_PHE - D142_BAS) STAT2 (ProbeID ILMN_1690921): -2,24
logFC(D142_PHE - D142_BAS) STAT1 (ProbeID ILMN_1691364, PHE vs BAS): -2,77
logFC(D142_PHE - D142_BAS) MYLK (ProbeID ILMN_1691476, PHE vs BAS): -3,27
logFC(D142_PHE - D142_BAS) STC2 (ProbeID ILMN_1691884): 3,81
logFC(D142_PHE - D142_BAS) KLHL21 (ProbeID ILMN_1692785): 2,54
logFC(D142_PHE - D142_BAS) PSAT1 (ProbeID ILMN_1692938): 2,74
logFC(D142_PHE - D142_BAS) P4HA1 (ProbeID ILMN_1693334): 3,46
logFC(D142_PHE - D142_BAS) MAP2K1 (ProbeID ILMN_1694240): 2,11
logFC(D142_PHE - D142_BAS) PANX2 (ProbeID ILMN_1694810): 2,42
logFC(D142_PHE - D142_BAS) KIF20A (ProbeID ILMN_1695658, PHE vs BAS): -3,25
logFC(D142_PHE - D142_BAS) DDIT4L (ProbeID ILMN_1696537): -2,12
logFC(D142_PHE - D142_BAS) VARS (ProbeID ILMN_1696601): -2,08
logFC(D142_PHE - D142_BAS) TNFRSF10B (ProbeID ILMN_1699265): 2,54
logFC(D142_PHE - D142_BAS) (ProbeID ILMN_1699644): 2,20
